Test results reported in patent publication US20140005163A1 (NOVARTIS AG, priority 2010, published 2014).

Key:
[1] = biological target: T1, PI3K alpha (Homo sapiens, UniProt P42336); test: PI3K alpha kinase assay (Kinase-Glo luminescence); type: biochemical
T1 construct: p85(iSH2) fusion partner (see partner chain) (N); His tag (C); made in house; host or cells: baculovirus; Tn5 (Trichoplusia ni) or TiniPro insect cells
Summary of the method: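 Enzyme 10 nM PI3Kα EMV B1075; ATP 1 μM; PI 10 μg/mL; Tris-HCl pH 7.5 10 mM, MgCl2 3 mM, NaCl 50 mM, CHAPS 0.05%, DTT 1 mM; 60 min RT; Kinase-Glo luminescence; 4-parameter IC50 fit, 8 concentrations, single points.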

[2] = system: PKB Ser473 phosphorylation in Rat1-myr-HA-p110 beta cells; test: Reverse protein array assay, PKB Ser473 phosphorylation in Rat1-myr-p110 beta cells; type: cell-based; conditions: 0.5 h, pAkt Ser473, 30 minutes incubation, read-out: p-PKB IC50
Summary of the method: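 Measured: PKB Ser473 phosphorylation by reverse protein array in Rat1 cells expressing myr-HA-p110 alpha, beta or delta, after 30 min compound treatment at 37 °C with 0.2% DMSO vehicle.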

[3] = system: S6 Ribosomal Protein phosphorylation Ser235/236 in TSC1 null mouse embryo fibroblast (MEF) cells; test: Reverse protein array assay, S6 Ribosomal Protein phosphorylation Ser235/236 in TSC1 null MEF cells; type: cell-based; conditions: 1 h, pS6 ribosomal protein Ser235/236, 60 minutes incubation, read-out: p-S6 IC50
Summary of the method: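 TSC1−/− MEFs, seeded and held ≥20 h at 37 °C/5% CO2, were exposed to 8-step serial compound dilutions (0.02% DMSO final; DMSO vehicle control) for 60 min at 37 °C. Cells were then lysed on ice for 10 min and lysates spotted onto reverse protein array chips.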

T1 sequence (P42336 with tags, fused parts or gaps limits assumed): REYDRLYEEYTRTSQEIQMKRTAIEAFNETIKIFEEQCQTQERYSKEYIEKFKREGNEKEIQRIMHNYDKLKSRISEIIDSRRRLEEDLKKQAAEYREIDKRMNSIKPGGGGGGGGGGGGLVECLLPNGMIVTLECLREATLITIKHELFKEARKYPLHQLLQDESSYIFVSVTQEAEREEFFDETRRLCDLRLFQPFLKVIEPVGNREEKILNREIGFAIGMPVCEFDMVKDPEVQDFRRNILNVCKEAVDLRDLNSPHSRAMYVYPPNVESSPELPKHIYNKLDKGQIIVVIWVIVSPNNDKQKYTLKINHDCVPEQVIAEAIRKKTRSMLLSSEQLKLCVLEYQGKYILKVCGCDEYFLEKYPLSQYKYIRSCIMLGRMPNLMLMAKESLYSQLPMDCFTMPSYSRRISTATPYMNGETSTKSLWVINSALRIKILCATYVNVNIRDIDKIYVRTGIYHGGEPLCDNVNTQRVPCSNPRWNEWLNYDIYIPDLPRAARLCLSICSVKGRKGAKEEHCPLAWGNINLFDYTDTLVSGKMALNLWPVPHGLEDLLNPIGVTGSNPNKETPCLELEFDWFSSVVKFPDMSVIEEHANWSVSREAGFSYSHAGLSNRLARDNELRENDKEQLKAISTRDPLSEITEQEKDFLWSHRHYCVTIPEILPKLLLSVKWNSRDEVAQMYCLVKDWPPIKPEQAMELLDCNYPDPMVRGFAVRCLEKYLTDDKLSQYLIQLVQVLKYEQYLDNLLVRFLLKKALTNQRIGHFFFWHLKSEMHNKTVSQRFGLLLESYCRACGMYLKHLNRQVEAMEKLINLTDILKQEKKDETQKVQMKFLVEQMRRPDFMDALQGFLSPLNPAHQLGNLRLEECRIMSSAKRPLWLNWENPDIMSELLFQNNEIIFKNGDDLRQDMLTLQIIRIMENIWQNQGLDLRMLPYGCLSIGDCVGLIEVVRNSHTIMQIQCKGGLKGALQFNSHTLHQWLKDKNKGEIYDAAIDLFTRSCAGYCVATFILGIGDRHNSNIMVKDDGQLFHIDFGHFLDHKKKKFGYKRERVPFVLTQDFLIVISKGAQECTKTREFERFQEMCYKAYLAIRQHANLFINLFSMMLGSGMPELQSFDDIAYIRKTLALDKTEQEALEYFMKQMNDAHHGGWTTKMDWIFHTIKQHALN

Question: How did the IC50 [1] turn out when `Cc1nn(C)cc1-n1c(=O)n(C)c2cnc3ccc(-c4cnc(F)c(N(C)C)c4)cc3c21` [Example 151, 8-(5-Dimethylamino-6-fluoro-pyridin-3-yl)-1-(1,3-dimethyl-1H-pyrazol-4-yl)-3-methyl-1,3-dihydro-imidazo[4,5-c]quinolin-2-one] was run?
Answer: 6 nM

Question: What about the IC50 [2] of the same compound?
Answer: 22 nM

Question: And the IC50 [3]?
Answer: 4 nM

Question: What does the source list for `Cc1nn(C)cc1-n1c(=O)n(C)c2cnc3ccc(-c4cnc(Cl)c(N)c4)cc3c21` [Example 152.2, 8-(5-Amino-6-chloro-pyridin-3-yl)-1-(1,3-dimethyl-1H-pyrazol-4-yl)-3-methyl-1,3-dihydro-imidazo[4,5-c]quinolin-2-one]?
Answer: IC50 [1]: 17 nM; IC50 [2]: 10 nM; IC50 [3]: 1 nM

Question: How did the IC50 [1] turn out when `CCNc1cc(-c2ccc3ncc4c(c3c2)n(-c2cn(C)nc2C)c(=O)n4C)cnc1COC` [Example 156, 1-(1,3-Dimethyl-1H-pyrazol-4-yl)-8-(5-ethylamino-6-methoxymethyl-pyridin-3-yl)-3-methyl-1,3-dihydro-imidazo[4,5-c]quinolin-2-one] was run?
Answer: 16 nM

Question: What about the IC50 [2] of the same compound?
Answer: 5 nM

Question: What about the IC50 [3] of the same compound?
Answer: 1 nM

Question: `CNc1cc(-c2ccc3ncc4c(c3c2)n(-c2cn(C)nc2C)c(=O)n4C)cnc1CO` [Example 158.1, 1-(1,3-Dimethyl-1H-pyrazol-4-yl)-8-(6-hydroxymethyl-5-methylamino-pyridin-3-yl)-3-methyl-1,3-dihydro-imidazo[4,5-c]quinolin-2-one] was tested. Which IC50 [1] did it give?
Answer: 9 nM

Question: What about the IC50 [2] of the same compound?
Answer: 17 nM

Question: What about the IC50 [3] of the same compound?
Answer: 8 nM

Question: Which results are given for `CNc1cc(-c2ccc3ncc4c(c3c2)n(-c2c(C)nn(C)c2C)c(=O)n4C)cnc1CO` [Example 158.4, 8-(6-Hydroxymethyl-5-methylamino-pyridin-3-yl)-3-methyl-1-(1,3,5-trimethyl-1H-pyrazol-4-yl)-1,3-dihydro-imidazo[4,5-c]quinolin-2-one]?
Answer: IC50 [1]: 72 nM; IC50 [2]: 88 nM; IC50 [3]: 150 nM

Question: With `CNc1cc(-c2ccc3ncc4c(c3c2)n(-c2cn(C)nc2Cl)c(=O)n4C)cnc1COC` [Example 160.1, 1-(3-Chloro-1-methyl-1H-pyrazol-4-yl)-8-(6-methoxymethyl-5-methylamino-pyridin-3-yl)-3-methyl-1,3-dihydro-imidazo[4,5-c]quinolin-2-one] as the compound, how does the IC50 [1] read?
Answer: 14 nM

Question: And the IC50 [2]?
Answer: < 5 nM

Question: What about the IC50 [3] of the same compound?
Answer: < 0.5 nM

Question: With `CCOCc1cc(-c2ccc3ncc4c(c3c2)n(-c2cn(CC)nc2C)c(=O)n4C)cnc1N` [Example 166.2, 8-(6-Amino-5-ethoxymethyl-pyridin-3-yl)-1-(1-ethyl-3-methyl-1H-pyrazol-4-yl)-3-methyl-1,3-dihydro-imidazo[4,5-c]quinolin-2-one] as the compound, how does the IC50 [1] read?
Answer: 15 nM

Question: And the IC50 [2]?
Answer: 86 nM

Question: What about the IC50 [3] of the same compound?
Answer: 2.26 nM

Question: For `COCc1cc(-c2ccc3ncc4c(c3c2)n(-c2cn(C(C)C)nc2C)c(=O)n4C)cnc1N` [Example 168.1, 8-(6-Amino-5-methoxymethyl-pyridin-3-yl)-1-(1-isopropyl-3-methyl-1H-pyrazol-4-yl)-3-methyl-1,3-dihydro-imidazo[4,5-c]quinolin-2-one], which IC50 [1] is on record?
Answer: 14 nM

Question: And the IC50 [2]?
Answer: 25 nM

Question: And the IC50 [3]?
Answer: 1 nM

Question: With `CNc1ncc(-c2ccc3ncc4c(c3c2)n(-c2cn(C(C)C)nc2C)c(=O)n4C)cc1CO` [Example 171, 8-(5-Hydroxymethyl-6-methylamino-pyridin-3-yl)-1-(1-isopropyl-3-methyl-1H-pyrazol-4-yl)-3-methyl-1,3-dihydro-imidazo[4,5-c]quinolin-2-one] as the compound, how does the IC50 [1] read?
Answer: 32 nM

Question: What about the IC50 [2] of the same compound?
Answer: < 5 nM

Question: And the IC50 [3]?
Answer: 3 nM

Question: For `Cc1cc(-n2c(=O)n(C)c3cnc4ccc(-c5cncc(N6CCOCC6)c5)cc4c32)n(C)n1` [Example 175.2, 1-(2,5-Dimethyl-2H-pyrazol-3-yl)-3-methyl-8-(5-morpholin-4-yl-pyridin-3-yl)-1,3-dihydro-imidazo[4,5-c]quinolin-2-one], which IC50 [1] is on record?
Answer: 199 nM

Question: What about the IC50 [2] of the same compound?
Answer: 161 nM

Question: And the IC50 [3]?
Answer: 32 nM

Question: `Cc1nn(C)cc1-n1c(=O)n(C)c2cnc3ccc(-c4cncc(NC(C)C)c4)cc3c21` [Example 177.1, 1-(1,3-Dimethyl-1H-pyrazol-4-yl)-8-(5-isopropylamino-pyridin-3-yl)-3-methyl-1,3-dihydro-imidazo[4,5-c]quinolin-2-one] was tested. Which IC50 [1] did it give?
Answer: 14 nM

Question: What about the IC50 [2] of the same compound?
Answer: 16 nM

Question: What about the IC50 [3] of the same compound?
Answer: 2 nM

Question: For `Cc1nn(C)cc1-n1c(=O)n(C)c2cnc3ccc(-c4cncc(OCCF)c4)cc3c21` [Example 181, 1-(1,3-Dimethyl-1H-pyrazol-4-yl)-8-[5-(2-fluoro-ethoxy)-pyridin-3-yl]-3-methyl-1,3-dihydro-imidazo[4,5-c]quinolin-2-one], which IC50 [1] is on record?
Answer: 12 nM

Question: What about the IC50 [2] of the same compound?
Answer: 54 nM

Question: And the IC50 [3]?
Answer: 3 nM

Question: Which results are given for `Cc1nn(C)cc1-n1c(=O)n(C)c2cnc3ccc(-c4cncc(OC(CF)CF)c4)cc3c21` [Example 182, 1-(1,3-Dimethyl-1H-pyrazol-4-yl)-8-[5-(2-fluoro-1-fluoromethyl-ethoxy)-pyridin-3-yl]-3-methyl-1,3-dihydro-imidazo[4,5-c]quinolin-2-one]?
Answer: IC50 [1]: 9 nM; IC50 [2]: 18 nM; IC50 [3]: 5 nM

Question: With `COc1cc(-c2ccc3ncc4c(c3c2)n(-c2cn(C(C)C)nc2C)c(=O)n4C)cnc1CO` [Example 194.1, 8-(6-Hydroxymethyl-5-methoxy-pyridin-3-yl)-1-(1-isopropyl-3-methyl-1H-pyrazol-4-yl)-3-methyl-1,3-dihydro-imidazo[4,5-c]quinolin-2-one] as the compound, how does the IC50 [1] read?
Answer: 34 nM

Question: And the IC50 [2]?
Answer: 81 nM

Question: What about the IC50 [3] of the same compound?
Answer: 20 nM

Question: How did the IC50 [1] turn out when `COc1cc(-c2ccc3ncc4c(c3c2)n(-c2cn(C)nc2Cl)c(=O)n4C)cnc1CO` [Example 194.2, 1-(3-chloro-1-methyl-1H-pyrazol-4-yl)-8-(6-hydroxymethyl-5-methoxy-pyridin-3-yl)-3-methyl-1,3-dihydro-imidazo[4,5-c]quinolin-2-one] was run?
Answer: 4 nM

Question: And the IC50 [2]?
Answer: 10 nM

Question: And the IC50 [3]?
Answer: 2 nM

Question: Which IC50 [1] does the source give for `CCOCc1ncc(-c2ccc3ncc4c(c3c2)n(-c2cn(C)nc2Cl)c(=O)n4C)cc1OC` [Example 196.1, 1-(3-Chloro-1-methyl-1H-pyrazol-4-yl)-8-(6-ethoxymethyl-5-methoxy-pyridin-3-yl)-3-methyl-1,3-dihydro-imidazo[4,5-c]quinolin-2-one] here?
Answer: 29 nM

Question: What about the IC50 [2] of the same compound?
Answer: 103 nM

Question: What about the IC50 [3] of the same compound?
Answer: 10 nM

Question: For `COc1ncc(-c2ccc3ncc4c(c3c2)n(-c2cn(C)nc2Cl)c(=O)n4C)cc1CO` [Example 200, 1-(3-Chloro-1-methyl-1H-pyrazol-4-yl)-8-(5-hydroxymethyl-6-methoxy-pyridin-3-yl)-3-methyl-1,3-dihydro-imidazo[4,5-c]quinolin-2-one], which IC50 [1] is on record?
Answer: 9 nM

Question: What about the IC50 [2] of the same compound?
Answer: < 5 nM

Question: What about the IC50 [3] of the same compound?
Answer: < 0.5 nM

Question: How did the IC50 [1] turn out when `COCc1cc(-c2ccc3ncc4c(c3c2)n(-c2cn(C)nc2Cl)c(=O)n4C)cnc1OC` [Example 201, 1-(3-Chloro-1-methyl-1H-pyrazol-4-yl)-8-(6-methoxy-5-methoxymethyl-pyridin-3-yl)-3-methyl-1,3-dihydro-imidazo[4,5-c]quinolin-2-one] was run?
Answer: 4 nM

Question: What about the IC50 [2] of the same compound?
Answer: 19 nM

Question: And the IC50 [3]?
Answer: 1 nM

Question: For `COc1cc(-c2ccc3ncc4c(c3c2)n(-c2cn(CCO)nc2C)c(=O)n4C)cnc1C` [Example 211.1, 1-[1-(2-Hydroxy-ethyl)-3-methyl-1H-pyrazol-4-yl]-8-(5-methoxy-6-methyl-pyridin-3-yl)-3-methyl-1,3-dihydro-imidazo[4,5-c]quinolin-2-one], which IC50 [1] is on record?
Answer: 6 nM

Question: And the IC50 [2]?
Answer: 61 nM

Question: And the IC50 [3]?
Answer: 21 nM
